Patent US20240285557A1, “PHARMACEUTICAL COMPOSITION COMPRISING LIPASE INHIBITOR FOR TREATMENT OR TREATMENT OF RNA VIRAL INFECTIONS” (priority 2021, published 2024)

Test system: SARS-COV-2 KCDC03 strain (A lineage), KDCA51463 strain (Alpha lineage), and KDCA55905 strain (Beta lineage)
Assay type: in vivo, Golden Syrian hamsters
Details: 40 mg kg^−1 day^−1 lipase inhibitor, 2.5 mg/kg/day remdesivir

## CCN(CC)C(=O)Nc1cccc(-c2ccc(N(C)C)cc2)c1 [DABPU-DE]
  pneumonia severity (and weight loss), comparison between treatment groups: more improvement
